Measurements taken from the NIST ThermoML archive (doi:10.1021/je060368x).

What was measured:
[1] = excess molar enthalpy (molar enthalpy of mixing); xn = mol fraction of the nth substance listed; conditions: 298.15 K, 101 kPa, Liquid, Flow calorimetry
[2] = xn = mol fraction of the nth substance listed; conditions: 298.15 K, 101 kPa, Liquid
[3] = heat capacity at constant pressure per volume; conditions: 298.15 K; 101.33 kPa; Liquid
[4] = heat capacity at constant pressure per volume; xn = mol fraction of the nth substance listed; conditions: 298.15 K, 101 kPa, Liquid

CCCCCCCCCCO [decan-1-ol] + C1CCCCC1
[1]
Conditions	excess molar enthalpy [kcal/mol]
x2 = 0.164	0.0694
x2 = 0.306	0.118
x2 = 0.431	0.148
x2 = 0.541	0.163
x2 = 0.638	0.166
x2 = 0.726	0.159
x2 = 0.805	0.144
x2 = 0.876	0.122
x2 = 0.941	0.0902

CCCCCCCCCCO [decan-1-ol] + C1CCOCC1
Conditions	excess molar enthalpy [kcal/mol]	mass density [kg/m3]
[1], x2 = 0.179	0.14	–
[1], x2 = 0.329	0.229	–
[1], x2 = 0.456	0.27	–
[1], x2 = 0.566	0.282	–
[1], x2 = 0.662	0.271	–
[1], x2 = 0.746	0.243	–
[1], x2 = 0.82	0.198	–
[1], x2 = 0.887	0.142	–
[1], x2 = 0.946	0.075	–
[2], x2 = 0.1017	–	828.6
[2], x2 = 0.2006	–	831.38
[2], x2 = 0.2971	–	834.48
[2], x2 = 0.3995	–	838.2
[2], x2 = 0.4943	–	842.21
[2], x2 = 0.5984	–	847.35
[2], x2 = 0.6979	–	853.12
[2], x2 = 0.8001	–	860.13
[2], x2 = 0.9009	–	868.56

CCCCCCCO [heptan-1-ol] + C1CCCCC1
[1]
Conditions	excess molar enthalpy [kcal/mol]
x2 = 0.127	0.0456
x2 = 0.246	0.0867
x2 = 0.359	0.119
x2 = 0.466	0.142
x2 = 0.567	0.154
x2 = 0.662	0.155
x2 = 0.753	0.145
x2 = 0.839	0.126
x2 = 0.922	0.0956

CCCCCCCO [heptan-1-ol] + C1CCOCC1
[2]
Conditions	mass density [kg/m3]
x2 = 0.0514	820.57
x2 = 0.1047	822.8
x2 = 0.1988	826.97
x2 = 0.2987	831.67
x2 = 0.4018	836.94
x2 = 0.4976	842.18
x2 = 0.6005	848.37
x2 = 0.6985	854.74
x2 = 0.8002	861.99
x2 = 0.8989	869.83
x2 = 0.9487	874.13

CCCCCCCCCO [nonan-1-ol] + C1CCCCC1
[1]
Conditions	excess molar enthalpy [kcal/mol]
x2 = 0.152	0.0608
x2 = 0.287	0.107
x2 = 0.409	0.138
x2 = 0.518	0.156
x2 = 0.617	0.161
x2 = 0.707	0.157
x2 = 0.79	0.143
x2 = 0.866	0.12
x2 = 0.936	0.089

CCCCCCCCCO [nonan-1-ol] + C1CCOCC1
Conditions	excess molar enthalpy [kcal/mol]	mass density [kg/m3]
[1], x2 = 0.166	0.13	–
[1], x2 = 0.309	0.211	–
[1], x2 = 0.434	0.254	–
[1], x2 = 0.544	0.27	–
[1], x2 = 0.641	0.263	–
[1], x2 = 0.729	0.238	–
[1], x2 = 0.807	0.197	–
[1], x2 = 0.877	0.143	–
[1], x2 = 0.942	0.0767	–
[2], x2 = 0.0965	–	826.81
[2], x2 = 0.1998	–	830.22
[2], x2 = 0.2989	–	833.75
[2], x2 = 0.3822	–	837.11
[2], x2 = 0.497	–	842.35
[2], x2 = 0.5969	–	847.63
[2], x2 = 0.6983	–	853.74
[2], x2 = 0.8	–	860.8
[2], x2 = 0.9002	–	869.06

CCCCCO [pentan-1-ol] + C1CCCCC1
[1]
Conditions	excess molar enthalpy [kcal/mol]
x2 = 0.1	0.0357
x2 = 0.2	0.0692
x2 = 0.3	0.0977
x2 = 0.4	0.125
x2 = 0.5	0.143
x2 = 0.6	0.152
x2 = 0.7	0.149
x2 = 0.8	0.133
x2 = 0.9	0.102

C1CCOCC1 [tetrahydropyran]
Conditions	heat capacity [J/K/m3]
[3]	1519000

C1CCOCC1 [tetrahydropyran] + CCCCCCCCCC
[1]
Conditions	excess molar enthalpy [kcal/mol]
x1 = 0.182	0.0908
x1 = 0.333	0.143
x1 = 0.461	0.165
x1 = 0.571	0.17
x1 = 0.666	0.16
x1 = 0.75	0.141
x1 = 0.823	0.115
x1 = 0.889	0.0821
x1 = 0.947	0.0428

C1CCOCC1 [tetrahydropyran] + CCCCCCCCO
[2]
Conditions	mass density [kg/m3]
x1 = 0.0533	823.35
x1 = 0.0961	824.78
x1 = 0.198	828.58
x1 = 0.2967	832.64
x1 = 0.4014	837.39
x1 = 0.5	842.3
x1 = 0.599	847.86
x1 = 0.7005	854.23
x1 = 0.7999	861.27
x1 = 0.8989	869.3
x1 = 0.9504	873.97

C1CCOCC1 [tetrahydropyran] + CCCCCCO
Conditions	heat capacity, [4] [J/K/m3]	mass density, [2] [kg/m3]
x1 = 0.0523	1899000	817.49
x1 = 0.1033	1883000	820.05
x1 = 0.2029	1851000	825.28
x1 = 0.3021	1818000	830.74
x1 = 0.4033	1782000	836.58
x1 = 0.5007	1745000	842.45
x1 = 0.6013	1705000	848.93
x1 = 0.7015	1662000	855.69
x1 = 0.799	1616000	862.7
x1 = 0.8994	1567000	870.44
x1 = 0.9482	1543000	874.45

C1CCOCC1 [tetrahydropyran] + CCCCCO
Conditions	excess molar enthalpy, [1] [kcal/mol]	heat capacity, [4] [J/K/m3]	mass density, [2] [kg/m3]
x1 = 0.0486	–	1898000	813.55
x1 = 0.0968	–	1881000	816.55
x1 = 0.11	0.0784	–	–
x1 = 0.2002	–	1846000	823.07
x1 = 0.217	0.144	–	–
x1 = 0.2987	–	1811000	829.33
x1 = 0.323	0.19	–	–
x1 = 0.3966	–	1776000	835.71
x1 = 0.426	0.219	–	–
x1 = 0.4994	–	1738000	842.54
x1 = 0.526	0.232	–	–
x1 = 0.5993	–	1698000	849.33
x1 = 0.625	0.228	–	–
x1 = 0.6972	–	1657000	856.2
x1 = 0.722	0.206	–	–
x1 = 0.8	–	1610000	863.59
x1 = 0.816	0.165	–	–
x1 = 0.8983	–	1564000	870.89
x1 = 0.909	0.0978	–	–
x1 = 0.9495	–	1540000	874.85

C1CCOCC1 [tetrahydropyran] + CCCCO
Conditions	heat capacity, [4] [J/K/m3]	mass density, [2] [kg/m3]
x1 = 0.0511	1899000	809.59
x1 = 0.0976	1882000	813.23
x1 = 0.1996	1847000	821.04
x1 = 0.301	1811000	828.64
x1 = 0.3987	1778000	835.87
x1 = 0.499	1739000	843.12
x1 = 0.598	1699000	850.26
x1 = 0.6994	1655000	857.46
x1 = 0.7998	1610000	864.53
x1 = 0.8998	1563000	871.67
x1 = 0.9501	1541000	875.22

C1CCOCC1 [tetrahydropyran] + CCCO
Conditions	heat capacity, [4] [J/K/m3]	mass density, [2] [kg/m3]
x1 = 0.0996	1875000	809.78
x1 = 0.1994	1838000	819.29
x1 = 0.2873	1807000	827.18
x1 = 0.3993	1766000	836.57
x1 = 0.4981	1728000	844.4
x1 = 0.6011	1687000	852.07
x1 = 0.7007	1646000	859.15
x1 = 0.7981	1604000	865.77
x1 = 0.9007	1560000	872.46
